Target: T1, SiaR (Haemophilus influenzae, UniProt P44540)
T1 construct: gene HI_0143; C-terminal His-tag, plasmid pJJ185 (earlier work), expressed in E. coli, tag not reported cut
Test: EMSA with nan-siaPT intergenic DNA probe
Type: binding
Conditions: 100 μM GlcN-6P; co-activator; serial dilutions of SiaR; 15 nM DNA probe; pH 7.4, room temperature

T1 sequence (P44540 whole entry): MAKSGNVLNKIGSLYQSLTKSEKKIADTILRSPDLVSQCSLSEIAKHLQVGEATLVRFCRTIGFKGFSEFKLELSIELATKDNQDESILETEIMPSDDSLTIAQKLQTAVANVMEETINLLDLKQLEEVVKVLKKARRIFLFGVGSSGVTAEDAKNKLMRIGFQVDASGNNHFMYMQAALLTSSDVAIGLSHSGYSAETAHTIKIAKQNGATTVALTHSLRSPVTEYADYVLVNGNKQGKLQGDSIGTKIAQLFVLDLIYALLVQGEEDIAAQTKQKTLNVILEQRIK

SMILES: N[C@H]1C(O)O[C@H](COP(=O)(O)O)[C@@H](O)[C@@H]1O (stereo partly shown) [GlcN-6P]
- EMSA with nan-siaPT intergenic DNA probe: SiaR bound the probe and GlcN-6P slightly increased the binding affinity

Reference: PMC2946308, “Sialic acid transport and catabolism are cooperatively regulated by SiaR and CRP in nontypeable Haemophilus influenzae” (BMC Microbiology, 2010)
